Source: patent EP4752137A1, “NEW COMPOUNDS DERIVED FROM MORIN, METHOD FOR OBTAINING THEM AND THEIR USES” (Universidad de Sevilla, priority 2023, dated 2025)

Assays:
[1] = Solubility of the isolated crystals; assay type: physicochemical; conditions: solvents in words
Procedure: For the preparation of morin oxime, 0.03 g of morin dissolved in 5 mL of MeOH were used, 0.0206 g of hydroxylamine hydrochloride and 0.0206 g of sodium acetate were added. The mixture was left under constant stirring and reflux for 2.5 hours. After this time, the crude product of the reaction was tempered and poured onto wet ice generating a precipitate, which was washed with dichloromethane and methanol obtaining a yellow solid in 60% yield. […] 6.45 dd (J = 8.5; 2.1 Hz). 6.39 d (J = 2.1 Hz). 6.34 d (J = 1.9 Hz). 6.16 d (J = 1.9 Hz). NMR of ^13C δ 102.9. 122.0. 122.0. 144.3. 149.1. 149.4. 152.8. 153.1. 154.7. 155.9. 84.5. 89.5. 95.5. 95.5. 99.5. UV (EtOH) λmax (log ε) 210 (4.6). 265 (4.2). 390 (4.4). The preparation of the compound can be carried out using the above-mentioned method with 0.1 g of morin, 0.07 g of hydroxylamine hydrochloride and 0.07 g of sodium acetate.
For the preparation of morin semicarbazone, 0.03 g of morin dissolved in 5 mL of MeOH was used, 0.0332 g of semicarbazide hydrochloride and 0.0332 g of sodium acetate were added. The mixture was left under constant stirring and reflux for 3 hours. After this time, the crude product of the reaction was tempered and poured onto wet ice generating a precipitate, which was recovered by filtration obtaining a coffee solid in 76% yield. […] 10.71 sa. 9.77 sa. 7.22 d (J= 8.4 Hz). 6.37 d (J= 2.4 Hz). 6.33 dd (J= 8.4; 2.4 Hz). 6.28 d (J= 1.9 Hz). […]

[2] = ABTS antioxidant capacity, Trolox curve as reference control; assay type: biochemical; conditions: ABTS technique
Procedure: First, the antioxidant capacity of the compounds was determined directly using the ABTS technique (2,2-azino-bis-3-benzo-thiazoline-6-sulfonic acid) at different concentrations of the compounds (morin and the compounds of Example 1), using as a reference control a curve of increasing concentrations of Trolox. […] Table 1. Antioxidant capacity of compounds

IL-6 (Interleukin-6) = assay: IL-6 production by ELISA in UVB-irradiated HaCaT keratinocytes; assay type: cell-based; conditions: for reduced IL-6 levels: 10 µM (highest concentration tested), 4 h pretreatment, UVB 50 mJ/cm^2, 24 h incubation
Procedure: For the evaluation of anti-inflammatory activity (Figure 2), HaCaT keratinocytes were pretreated for 4 h with the compounds morin (A), morin oxime obtained in Example 1 (B) and morin semicarbazone obtained in Example 1 (C) (2.5, 5 and 10 µM). They were then irradiated with UVB radiation at 50 mJ/cm^2, incubated for 24 h and IL-6 (Interleukin-6) production was assessed by ELISA. Results were expressed as pg/mL and bars represent ± SEM (n=5). […] Thus, it is worth noting that at the highest concentration tested (10 µM), morin oxime reduced IL-6 levels by 45% (Figure 2B) and morin semicarbazone by 28% (Figure 2C), compared to morin, with which a decrease of only 16% was observed (Figure 2A).
Finally, the combination of morin or the morin semicarbazone derivative from Example 1 with fucoxanthin induced a decrease in IL-6 production at all concentrations tested in a 1:1 proportion. It is worth mentioning that this reduction was more notable with the fucoxanthin+morin semicarbazone mixture at the 5-5 µM and 10-10 µM combinations (42% reduction) (Figure 6C) than with fucoxanthin+morin (38% reduction) (Figure 6B). […] The results were expressed as a percentage with respect to the irradiated control cells and the bars represented mean ± SEM (n = 4).

[3] = UV-vis absorption spectra (molar extinction coefficient); assay type: physicochemical; conditions: UV-vis 200-500 nm; improvement relative to morin
From the text: As experimental evidence of the improvement in the photoprotective capacity of compounds synthesized in Example 1, a comparison was made of the absorption capacity in the UV-vis range between morin and nitrogen derivatives (Schiff bases).
The tangible improvement with chemical modification for the compounds synthesized in Example 1 is evident by comparing the molar extinction coefficient (ε) values. […] In a further analysis, it can be seen that the εmax of morin oxime is 60% better than that of morin, and εmax of morin semicarbazone is 40% better than that of morin. […] Therefore, an improvement can be achieved in the optimization of active ingredients used in the preparation of compositions, the purpose of which is directed towards photoprotection and a photoabsorbent flavonoid is contemplated in said formulation.

ROS = assay: Intracellular ROS (dichlorodihydrofluorescein-diacetate technique) in UVB-irradiated HaCaT cells; assay type: cell-based
Procedure: For the evaluation of the antioxidant activity of morin semicarbazone obtained in Example 1, HaCaT cells were pre-treated with morin and semicarbazone at the selected concentrations for 4 h and then irradiated with UVB radiation at 50 mJ/cm^2. After 45 min, ROS levels were measured using the dichlorodihydrofluorescein-diacetate technique. […] The results were expressed as a percentage with respect to the irradiated cell control and the bars represented mean ± SEM (n=4).
This decrease was slightly greater with the fucoxanthin+morin semicarbazone mixture at the 1.25-1.25 µM and 2.5-2.5 µM combinations (41% reduction) (Figure 5C) than with fucoxanthin+morin (33% and 37% reduction, respectively) (Figure 5B). […] The results were expressed as a percentage with respect to the irradiated control cells and the bars represented mean ± SEM (n = 4).

[4] = fucoxanthin alone, highest concentration tested

ON=c1c(O)c(-c2ccc(O)cc2O)oc2cc(O)cc(O)c12 [Morin oxime, 2-(2,4-dihydroxyphenyl)-3,5,7-trihydroxy-4H-chromen-4-one oxime]
solubility [1]: soluble in AcOEt, acetone, MeOH, and partially soluble in water | EC50 [2]: 13.7 ± 0.768 µM | Trolox equivalency (EC50 sample/EC 50 Trolox) [2]: 0.658 | reduced IL-6 levels (IL-6 (Interleukin-6)): 45% | εmax better than that of morin [3]: 60%

Cc1c(C)c2c(c(C)c1O)CCC(C)(C(=O)O)O2 (stereo not shown) [Trolox, reference compound]
EC50 [2]: 20.8 ± 0.811 µM | Trolox equivalency (EC50 sample/EC 50 Trolox) [2]: 1

O=c1c(O)c(-c2ccc(O)cc2O)oc2cc(O)cc(O)c12 [Morin, 2-(2,4-dihydroxyphenyl)-3,5,7-trihydroxy-4H-chromen-4-one]
EC50 [2]: 10.8 ± 2.21 µM | Trolox equivalency (EC50 sample/EC 50 Trolox) [2]: 0.517 | ROS levels (result in words) (ROS; all concentrations tested, 4 h pretreatment, UVB 50 mJ/cm^2, 45 min): failed to reduce ROS levels at any of the concentrations tested | reduced IL-6 levels (IL-6 (Interleukin-6)): 16%

NC(=O)NN=c1c(O)c(-c2ccc(O)cc2O)oc2cc(O)cc(O)c12 [Morin semicarbazone, 2-(2-(2,4-dihydroxyphenyl)-3,5,7-trihydroxy-4H-chromen-4-ylidene)hydrazine-1-carboxamide]
solubility [1]: solubility in AcOEt, acetone, MeOH | EC50 [2]: 12.3 ± 0.922 µM | Trolox equivalency (EC50 sample/EC 50 Trolox) [2]: 0.590 | reduced ROS production (ROS; 10 µM, 4 h pretreatment, UVB 50 mJ/cm^2, 45 min, vs irradiated cell control): up to 20% | reduced IL-6 levels (IL-6 (Interleukin-6)): 28% | εmax better than that of morin [3]: 40%

fucoxanthin [reference compound]
ROS reduction (ROS; [4]): 34% | IL-6 production reduction (IL-6 (Interleukin-6); [4]): 30%
